Test: xn = mol fraction of the nth substance listed
Conditions: Liquid, Pycnometric method

Cn1ccnc1 [1-methylimidazole] + O=C=O
Conditions | mass density [kg/m3]
332.4 K, 18690 kPa, x1 = 0.1024 | 902
332.4 K, 18750 kPa, x1 = 0.1024 | 903
332.4 K, 18860 kPa, x1 = 0.0102 | 773
332.4 K, 18860 kPa, x1 = 0.0487 | 837
332.4 K, 18860 kPa, x1 = 0.1024 | 904
332.4 K, 18940 kPa, x1 = 0.1024 | 905
332.4 K, 19040 kPa, x1 = 0.0487 | 840
337.4 K, 13050 kPa, x1 = 0.0102 | 568
337.4 K, 13150 kPa, x1 = 0.0102 | 576
337.4 K, 13270 kPa, x1 = 0.0102 | 584
337.4 K, 13370 kPa, x1 = 0.0102 | 593
337.4 K, 13490 kPa, x1 = 0.0102 | 601
337.4 K, 13620 kPa, x1 = 0.0102 | 610
337.4 K, 13770 kPa, x1 = 0.0102 | 619
337.4 K, 13910 kPa, x1 = 0.0102 | 628
337.4 K, 14080 kPa, x1 = 0.0102 | 638
337.4 K, 14240 kPa, x1 = 0.0102 | 648
337.4 K, 14430 kPa, x1 = 0.0102 | 658
337.4 K, 14490 kPa, x1 = 0.0247 | 650
337.4 K, 14560 kPa, x1 = 0.0247 | 653
337.4 K, 14630 kPa, x1 = 0.0102 | 669
337.4 K, 14660 kPa, x1 = 0.0247 | 658
337.4 K, 14780 kPa, x1 = 0.0247 | 662
337.4 K, 14850 kPa, x1 = 0.0102 | 680
337.4 K, 14900 kPa, x1 = 0.0247 | 666
337.4 K, 15020 kPa, x1 = 0.0247 | 671
337.4 K, 15080 kPa, x1 = 0.0102 | 691
337.4 K, 15140 kPa, x1 = 0.0247 | 675
337.4 K, 15270 kPa, x1 = 0.0247 | 680
337.4 K, 15350 kPa, x1 = 0.0102 | 703
337.4 K, 15420 kPa, x1 = 0.0247 | 684
337.4 K, 15560 kPa, x1 = 0.0247 | 689
337.4 K, 15730 kPa, x1 = 0.0247 | 693
337.4 K, 15740 kPa, x1 = 0.0102 | 719
337.4 K, 15880 kPa, x1 = 0.0247 | 698
337.4 K, 16050 kPa, x1 = 0.0247 | 703
337.4 K, 16080 kPa, x1 = 0.0102 | 732
337.4 K, 16230 kPa, x1 = 0.0247 | 708
337.4 K, 16410 kPa, x1 = 0.0247 | 713
337.4 K, 16450 kPa, x1 = 0.0102 | 745
337.4 K, 16600 kPa, x1 = 0.0487 | 768
337.4 K, 16610 kPa, x1 = 0.0247 | 717
337.4 K, 16640 kPa, x1 = 0.0487 | 769
337.4 K, 16730 kPa, x1 = 0.0487 | 770
337.4 K, 16840 kPa, x1 = 0.0102 | 759
337.4 K, 16850 kPa, x1 = 0.0487 | 773
337.4 K, 16890 kPa, x1 = 0.0247 | 724
337.4 K, 16960 kPa, x1 = 0.0487 | 775
337.4 K, 17070 kPa, x1 = 0.0487 | 777
337.4 K, 17170 kPa, x1 = 0.0487 | 780
337.4 K, 17190 kPa, x1 = 0.0247 | 731
337.4 K, 17290 kPa, x1 = 0.0487 | 782
337.4 K, 17300 kPa, x1 = 0.0102 | 773
337.4 K, 17410 kPa, x1 = 0.0487 | 784
337.4 K, 17450 kPa, x1 = 0.0247 | 737
337.4 K, 17560 kPa, x1 = 0.0487 | 787
337.4 K, 17680 kPa, x1 = 0.0247 | 742
337.4 K, 17680 kPa, x1 = 0.0487 | 789
337.4 K, 17810 kPa, x1 = 0.0487 | 791
337.4 K, 17820 kPa, x1 = 0.0102 | 788
337.4 K, 17940 kPa, x1 = 0.0487 | 794
337.4 K, 18060 kPa, x1 = 0.0247 | 749
337.4 K, 18090 kPa, x1 = 0.0487 | 797
337.4 K, 18200 kPa, x1 = 0.0102 | 798
337.4 K, 18210 kPa, x1 = 0.0487 | 799
337.4 K, 18350 kPa, x1 = 0.0487 | 800
337.4 K, 18510 kPa, x1 = 0.0487 | 804
337.4 K, 18610 kPa, x1 = 0.0102 | 808
337.4 K, 18670 kPa, x1 = 0.0487 | 806
337.4 K, 18810 kPa, x1 = 0.0102 | 813
337.4 K, 18820 kPa, x1 = 0.0487 | 809
337.4 K, 18990 kPa, x1 = 0.0487 | 811
